Measured values published in US10112941B2, “Tricyclic compounds as anticancer agents” (BRISTOL-MYERS SQUIBB COMPANY, priority 2013, dated 2018).

Molecular target: BRD4 (Homo sapiens, UniProt O60885)
Test: Time Resolved Fluorescence Resonance Energy Transfer (TR-FRET) binding assay, BRD4
Conditions: one of the FRET assays described; read-out: FRET BRD4 IC50

Row | Compound | IC50
1 | Cc1noc(C)c1-c1cnc2c3ccc(C(C)(C)O)cc3n(C(c3cccc(F)c3F)C3CCOCC3)c2c1 (single isomer, unassigned) [Example 145, 2-{5-[(2,3-Difluorophenyl)(oxan-4-yl)methyl]-3-(dimethyl-1,2-oxazol-4-yl)-5H-pyrido[3,2-b]indol-7-yl}propan-2-ol] | < 5 nM
2 | COc1ccc(C(C2CCOCC2)n2c3cc(C(C)(C)O)ccc3c3ncc(-c4c(C)nnn4C)cc32)c(F)c1 (single isomer, unassigned) [Example 119, 2-[3-(Dimethyl-1H-1,2,3-triazol-5-yl)-5-[(2-fluoro-4-methoxyphenyl)(oxan-4-yl)methyl]-5H-pyrido[3,2-b]indol-7-yl]propan-2-ol] | < 5 nM
3 | Cc1nnn(C)c1-c1cnc2c3ccc(CO)cc3n([C@H](c3ccccc3)C3CCOCC3)c2c1 [Example 405, [3-(Dimethyl-1H-1,2,3-triazol-5-yl)-5-[(S)-oxan-4-yl(phenyl)methyl]-5H-pyrido[3,2-b]indol-7-yl]methanol] | < 5 nM
4 | Cc1nnn(C)c1-c1cnc2c3ccc(C(C)(O)C4CC4)cc3n([C@H](c3ccccc3)C3CCOCC3)c2c1 (single isomer, unassigned) [Example 422] | < 5 nM
5 | Cc1nnn(C)c1-c1cnc2c3c(S(C)(=O)=O)cccc3n([C@H](c3ccc(F)cc3)C3CCOCC3)c2c1 [Example 257, 5-{5-[(S)-(4-Fluorophenyl)(oxan-4-yl)methyl]-9-methanesulfonyl-5H-pyrido[3,2-b]indol-3-yl}-1,4-dimethyl-1H-1,2,3-triazole] | < 5 nM
6 | Cc1nnn(C)c1-c1cnc2c3ccc(C(C)(C)O)cc3n(C(c3ccccc3)C3CCC(F)(F)CC3)c2c1 (single isomer, unassigned) [Example 206] | < 5 nM
7 | Cc1noc(C)c1-c1cnc2c3ccc(C(C)(C)O)cc3n([C@@H](CCC(F)(F)F)c3cscn3)c2c1 [Example 20] | < 25 nM
8 | [2H]C([2H])([2H])c1nnn(C)c1-c1cnc2c3c(OC)cc(S(C)(=O)=O)cc3n([C@H](c3ccccc3F)C3CCOCC3)c2c1 [Example 198, 5-{5-[(S)-(2-Fluorophenyl)(oxan-4-yl)methyl]-7-methanesulfonyl-9-methoxy-5H-pyrido[3,2-b]indol-3-yl}-4-(^2H3)methyl-1-methyl-1H-1,2,3-triazole] | < 5 nM
9 | Cc1nnn(C)c1-c1cnc2c3ccc(C(C)(C)O)cc3n(C(c3ccc(F)c(F)c3)C3CCOCC3)c2c1 (single isomer, unassigned) [Example 96, 2-{5-[(3,4-Difluorophenyl)(oxan-4-yl)methyl]-3-(dimethyl-1H-1,2,3-triazol-5-yl)-5H-pyrido[3,2-b]indol-7-yl}propan-2-ol] | < 25 nM
10 | Cc1nnn(C)c1-c1cnc2c3ccc(CS(C)(=O)=O)cc3n([C@H](c3cc(Cl)ccn3)C3CCOCC3)c2c1 [Example 335] | < 5 nM
11 | [2H]C([2H])([2H])c1nnn(C)c1-c1cnc2c3cc(F)c(C(C)(C)O)cc3n(C(c3cc(C)on3)C3CCOCC3)c2c1 (single isomer, unassigned) [Example 313] | < 5 nM
12 | Cc1noc(C)c1-c1cnc2c3ccc(C(C)(C)O)cc3n(CC3CCOCC3)c2c1 [Example 47] | < 25 nM
13 | [2H]C([2H])([2H])c1nnn(C)c1-c1cnc2c3c(OC)cc(S(C)(=O)=O)cc3n(C(c3ncccc3F)C3CCC(F)(F)CC3)c2c1 (single isomer, unassigned) [Example 214, 2-[(4,4-Difluorocyclohexyl)({7-methanesulfonyl-9-methoxy-3-[4-(^2H3)methyl-1-methyl-1H-1,2,3-triazol-5-yl]-5H-pyrido[3,2-b]indol-5-yl})methyl]-3-fluoropyridine] | < 5 nM
14 | [2H]C([2H])([2H])c1nnn(C)c1-c1cnc2c3ccc(C(C)(C)O)cc3n(C(c3ccncc3F)C3CCOCC3)c2c1 (single isomer, unassigned) [Example 311] | < 5 nM
15 | [2H]C([2H])([2H])c1nnn(C)c1-c1cnc2c3ccc(S(C)(=O)=O)cc3n(C(c3ccccc3)C3CCC(F)(F)CC3)c2c1 (stereo not drawn) [Example 159, 5-{5-[(4,4-Difluorocyclohexyl)(phenyl)methyl]-7-methanesulfonyl-5H-pyrido[3,2-b]indol-3-yl}-4-(^2H3)methyl-1-methyl-1H-1,2,3-triazole] | < 5 nM
16 | Cc1noc(C)c1-c1cnc2c3ccc(C(C)(C)O)cc3n(C(c3c(F)cccc3F)C3CCOCC3)c2c1 (single isomer, unassigned) [Example 143, 2-{5-[(2,6-Difluorophenyl)(oxan-4-yl)methyl]-3-(dimethyl-1,2-oxazol-4-yl)-5H-pyrido[3,2-b]indol-7-yl}propan-2-ol] | < 5 nM
17 | Cc1noc(C)c1-c1cnc2c3ccc(C(=O)O)cc3n(C(c3ccccc3)C3CCOCC3)c2c1 (stereo not drawn) [Example 44, 3-(Dimethyl-1,2-oxazol-4-yl)-5-[oxan-4-yl(phenyl)methyl]-5H-pyrido[3,2-b]indole-7-carboxylic acid] | < 5 nM

Row | Compound | IC50
18 | Cc1cc(C(C2CCOCC2)n2c3cc(C(C)(C)O)ccc3c3ncc(-c4c(C)noc4C)cc32)no1 (single isomer, unassigned) [Example 307] | < 25 nM
19 | Cc1nnn(C)c1-c1cnc2c3c(S(C)(=O)=O)cccc3n(C(c3c(F)cc(F)cc3F)C3CCOCC3)c2c1 (single isomer, unassigned) [Example 117, 5-{9-Methanesulfonyl-5-[oxan-4-yl(2,4,6-trifluorophenyl)methyl]-5H-pyrido[3,2-b]indol-3-yl}-1,4-dimethyl-1H-1,2,3-triazole] | < 5 nM
20 | Cc1noc(C)c1-c1cnc2c3ccc(C(C)(C)O)cc3n(C(CCC(F)(F)F)c3cnoc3)c2c1 (single isomer, unassigned) [Example 36, 2-[3-(Dimethyl-1,2-oxazol-4-yl)-5-[4,4,4-trifluoro-1-(1,2-oxazol-4-yl)butyl]-5H-pyrido[3,2-b]indol-7-yl]propan-2-ol] | < 25 nM
21 | Cc1nnn(C)c1-c1cnc2c3c(F)cc(C(C)(C)O)cc3n(C(c3cccc(F)c3)C3CCOCC3)c2c1 (single isomer, unassigned) [Example 112, 2-[3-(Dimethyl-1H-1,2,3-triazol-5-yl)-9-fluoro-5-[(3-fluorophenyl)(oxan-4-yl)methyl]-5H-pyrido[3,2-b]indol-7-yl]propan-2-ol] | < 5 nM
22 | [2H]C([2H])([2H])c1nnn(C)c1-c1cnc2c3ccc(C(C)(C)O)cc3n(C(c3ncccc3C(F)(F)F)C3CCOCC3)c2c1 (single isomer, unassigned) [Example 318] | < 5 nM
23 | [2H]C([2H])([2H])c1nnn(C)c1-c1cnc2c3c(OC)cc(S(C)(=O)=O)cc3n(C(c3ncccc3F)C3CCOCC3)c2c1 (stereo not drawn) [Example 207, 3-Fluoro-2-[{7-methanesulfonyl-9-methoxy-3-[4-(^2H3)methyl-1-methyl-1H-1,2,3-triazol-5-yl]-5H-pyrido[3,2-b]indol-5-yl}(oxan-4-yl)methyl]pyridine] | < 5 nM
24 | Cc1noc(C)c1-c1cnc2c3ccc(C(C)(C)O)cc3n(C(c3cccc(F)c3)C3CCOCC3)c2c1 (single isomer, unassigned) [Example 148, 2-[3-(Dimethyl-1,2-oxazol-4-yl)-5-[(3-fluorophenyl)(oxan-4-yl)methyl]-5H-pyrido[3,2-b]indol-7-yl]propan-2-ol] | < 25 nM
25 | Cc1nnn(C)c1-c1cnc2c3ccc(CS(C)(=O)=O)cc3n([C@H](c3ncccc3F)C3CCOCC3)c2c1 [Example 332] | < 5 nM
26 | Cc1noc(C)c1-c1cnc2c3ccc(C(C)(C)O)cc3n(C(c3cc(F)cc(F)c3)C3CCOCC3)c2c1 (single isomer, unassigned) [Example 129, 2-{5-[(3,5-Difluorophenyl)(oxan-4-yl)methyl]-3-(dimethyl-1,2-oxazol-4-yl)-5H-pyrido[3,2-b]indol-7-yl}propan-2-ol] | < 1500 nM
27 | Cc1noc(C)c1-c1cnc2c3ccc(C(C)(C)O)cc3n(C(c3ccc(F)cc3F)C3CCOCC3)c2c1 (single isomer, unassigned) [Example 126, 2-{5-[(2,4-Difluorophenyl)(oxan-4-yl)methyl]-3-(dimethyl-1,2-oxazol-4-yl)-5H-pyrido[3,2-b]indol-7-yl}propan-2-ol] | < 25 nM
28 | [2H]C([2H])([2H])c1nnn(C)c1-c1cnc2c3c(S(C)(=O)=O)cc(F)c(F)c3n(C(c3ccccc3)C3CCC(F)(F)CC3)c2c1 (single isomer, unassigned) [Example 164, 5-{5-[(4,4-Difluorocyclohexyl)(phenyl)methyl]-6,7-difluoro-9-methanesulfonyl-5H-pyrido[3,2-b]indol-3-yl}-4-(^2H3)methyl-1-methyl-1H-1,2,3-triazole] | < 5 nM
29 | Cc1nnn(C)c1-c1cnc2c3c(S(C)(=O)=O)cccc3n(C(CCC(F)(F)F)c3ccccn3)c2c1 (single isomer, unassigned) [Example 258, 2-{1-[3-(Dimethyl-1H-1,2,3-triazol-5-yl)-9-methanesulfonyl-5H-pyrido[3,2-b]indol-5-yl]-4,4,4-trifluorobutyl}pyridine] | < 5 nM
30 | Cc1nnn(C)c1-c1cnc2c3ccc(CC(C)(C)O)cc3n([C@H](c3ccc(F)cc3)C3CCOCC3)c2c1 [Example 256, 1-[3-(Dimethyl-1H-1,2,3-triazol-5-yl)-5-[(S)-(4-fluorophenyl)(oxan-4-yl)methyl]-5H-pyrido[3,2-b]indol-7-yl]-2-methylpropan-2-ol] | < 5 nM
31 | Cc1nnn(C)c1-c1cnc2c3ccc(C(C)(C)O)cc3n(C(CCC(F)(F)F)c3ccccn3)c2c1 (single isomer, unassigned) [Example 253, 2-[3-(Dimethyl-1H-1,2,3-triazol-5-yl)-5-[4,4,4-trifluoro-1-(pyridin-2-yl)butyl]-5H-pyrido[3,2-b]indol-7-yl]propan-2-ol] | < 5 nM
32 | [2H]C([2H])([2H])Oc1ccc(S(=O)(=O)C([2H])([2H])[2H])c2c1c1ncc(-c3c(C)nnn3C)cc1n2[C@H](c1ccccc1)C1CCOCC1 [Example 184, 5-[6-(^2H3)Methanesulfonyl-9-(^2H3)methoxy-5-[(S)-oxan-4-yl(phenyl)methyl]-5H-pyrido[3,2-b]indol-3-yl]-1,4-dimethyl-1H-1,2,3-triazole] | < 5 nM
33 | Cc1nnn(C)c1-c1cnc2c3ccc(C(C)(C)O)cc3n([C@@H](c3ccccc3)C3CCOCC3)c2c1 [Example 91, 2-[3-(dimethyl-1H-1,2,3-triazol-5-yl)-5-[(R)-oxan-4-yl(phenyl)(^2H)methyl]-5H-pyrido[3,2-b]indol-7-yl]propan-2-ol] | < 25 nM
